In patent publication US8569007B2, “Method for reducing the appearance of false positive bands in SDS-page analysis of proteolytic digestion of a sample” (Merck Sharp & Dohme Corp., priority 2006, dated 2013):

Test system: thiol-protease
Conditions: 100 μM E-64; anti-IGF1R antibody substrate; overnight at room temperature; reducing SDS-PAGE (FIG. 5)
Procedure: Gels containing 4-20% polyacryamide were used for reducing SDS-PAGE. Recipes for buffers were as follows: • 1.5M Tris pH 8.8: Dissolve 90.73 g Tris base in 400 ml DI H2O. pH to 8.8 with Hydrochloric Acid. Bring to volume of 500 ml with DI H2O, Store at 4° C. (This is one of the components used to make pH 8.8 Sample Buffer—below) • pH 8.8 Sample Buffer: Combine the following: 228 ml of DI H2O, 50 ml Glycerol, 50 ml 1.5M Tris pH 8.8, 50 ml 10% SDS solution, and 10 ml 0.05% Bromophenol Blue. Store at 4° C. • 2× Reducing Sample Buffer: Prepare 3% by volume 2-Mercaptoethanol in pH 8.8 Sample Buffer. Prepare fresh prior to use.
The buffers were combined with the samples in equal volumes and allowed to sit overnight at room temperature before boiling. This increases the sensitivity of the assay for protease activity. The samples were then boiled directly before submitting for SDS-PAGE.
E-64 was dissolved in DMSO and EDTA was dissolved in sterile distilled water. Samples were allowed to incubate overnight at room temperature. Samples were then combined in equal parts with anti-IGF1R drug substance to yield a final concentration of 0.5 mg/ml antibody. Reducing buffer was added in equal parts to the samples containing antibody. Following overnight incubation, these samples were then loaded onto gels for reducing SDS-PAGE for a final load of 10-12 μg of antibody. […]

CC(C)C[C@H](NC(=O)[C@H]1O[C@@H]1C(=O)O)C(=O)NCCCCN=C(N)N (relative stereo) [E-64, trans-epoxy-succinyl-L-leucylamido-(4-guanidino)butane]
inhibition of active thiol-protease in 1615 CHO medium supplement: inhibited
